Measured values published in patent publication US9579314B2 (priority 2015, dated 2017).

Experiments:
Human β2 adrenoceptor = Human β2 adrenoceptor (Homo sapiens, UniProt P07550); settings: read-out: B2 binding affinity
Human M3 receptor = Human M3 receptor (Homo sapiens, UniProt P20309); settings: read-out: M3 binding affinity
Human M3 receptor, sequence (P20309 whole entry): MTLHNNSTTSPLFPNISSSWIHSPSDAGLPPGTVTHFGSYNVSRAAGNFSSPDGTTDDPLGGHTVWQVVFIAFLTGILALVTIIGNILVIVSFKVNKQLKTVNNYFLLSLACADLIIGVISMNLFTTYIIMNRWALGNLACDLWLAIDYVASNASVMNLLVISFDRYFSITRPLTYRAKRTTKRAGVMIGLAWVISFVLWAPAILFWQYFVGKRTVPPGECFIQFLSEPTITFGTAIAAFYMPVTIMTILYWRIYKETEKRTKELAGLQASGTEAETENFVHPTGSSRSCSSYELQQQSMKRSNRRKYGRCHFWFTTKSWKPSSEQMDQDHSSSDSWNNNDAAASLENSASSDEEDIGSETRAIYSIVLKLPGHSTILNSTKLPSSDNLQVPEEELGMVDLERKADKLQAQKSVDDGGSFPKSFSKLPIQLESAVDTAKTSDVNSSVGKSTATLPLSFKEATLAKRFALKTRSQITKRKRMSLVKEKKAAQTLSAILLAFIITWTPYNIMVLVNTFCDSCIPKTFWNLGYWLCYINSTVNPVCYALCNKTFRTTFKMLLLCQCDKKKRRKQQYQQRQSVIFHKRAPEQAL

Human β2 adrenoceptor, sequence (P07550 whole entry): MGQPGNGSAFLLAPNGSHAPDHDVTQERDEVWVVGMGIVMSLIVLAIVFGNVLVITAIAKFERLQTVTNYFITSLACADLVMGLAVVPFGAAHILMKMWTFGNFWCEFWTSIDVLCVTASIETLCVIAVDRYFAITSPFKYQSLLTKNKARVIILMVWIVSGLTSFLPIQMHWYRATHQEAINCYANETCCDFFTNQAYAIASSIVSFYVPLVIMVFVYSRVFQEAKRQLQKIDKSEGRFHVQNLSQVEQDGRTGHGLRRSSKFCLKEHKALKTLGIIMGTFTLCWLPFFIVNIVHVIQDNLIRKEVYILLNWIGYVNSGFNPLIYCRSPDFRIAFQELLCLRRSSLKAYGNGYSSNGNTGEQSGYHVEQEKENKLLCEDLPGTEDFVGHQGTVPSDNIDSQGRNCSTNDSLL

Row | SMILES | IC50 (Human β2 adrenoceptor) [nM] | IC50 (Human M3 receptor) [nM]
1 | O=C(COc1cccc([C@](O)(C(=O)OCC2CCN(Cc3ccccc3)CC2)c2ccccc2)c1)N[C@H]1C[C@H](NC(=O)Cc2ccc(CNC[C@H](O)c3ccc(O)c4[nH]c(=O)ccc34)cc2)C1 [Compound 146, (1-benzylpiperidin-4-yl)methyl (S)-2-hydroxy-2-(3-(2-(((1R,3S)-3-(2-(4-((((R)-2-hydroxy-2-(8-hydroxy-2-oxo-1,2-dihydroquinolin-5-yl)ethyl)amino)methyl)phenyl)acetamido)cyclobutyl)amino)-2-oxoethoxy)phenyl)-2-phenylacetate] | > 3 | 0.3 to 3
2 | O=C(COc1cccc([C@](O)(C(=O)OCC2CCN(Cc3ccccc3)CC2)c2ccccc2)c1)N1CC(C(=O)N2CCC(CNC[C@H](O)c3ccc(O)c4[nH]c(=O)ccc34)CC2)C1 [Compound 147, (1-Benzylpiperidin-4-yl)methyl (S)-2-hydroxy-2-(3-(2-(3-(4-((((R)-2-hydroxy-2-(8-hydroxy-2-oxo-1,2-dihydroquinolin-5-yl)ethyl)amino)methyl)piperidine-1-carbonyl)azetidin-1-yl)-2-oxoethoxy)phenyl)-2-phenylacetate] | < 0.3 | 0.3 to 3
3 | O=C(COc1cccc([C@](O)(C(=O)OCC2CCN(Cc3ccccc3)CC2)c2ccccc2)c1)N1CCC(C(=O)N2CCC(CNC[C@H](O)c3ccc(O)c4[nH]c(=O)ccc34)CC2)CC1 [Compound 148, (1-benzylpiperidin-4-yl)methyl (S)-2-hydroxy-2-(3-(2-(4-(4-((((R)-2-hydroxy-2-(8-hydroxy-2-oxo-1,2-dihydroquinolin-5-yl)ethyl)amino)methyl)piperidine-1-carbonyl)piperidin-1-yl)-2-oxoethoxy)phenyl)-2-phenylacetate] | < 0.3 | 0.3 to 3
4 | O=C(COc1cccc([C@](O)(C(=O)OCC2CCN(Cc3ccccc3)CC2)c2ccccc2)c1)N[C@H]1CC[C@H](C(=O)N2CCC(CNC[C@H](O)c3ccc(O)c4[nH]c(=O)ccc34)CC2)CC1 [Compound 149, (1-benzylpiperidin-4-yl)methyl (S)-2-hydroxy-2-(3-(2-(((1R,4S)-4-(4-((((R)-2-hydroxy-2-(8-hydroxy-2-oxo-1,2-dihydroquinolin-5-yl)ethyl)amino)methyl)piperidine-1-carbonyl)cyclohexyl)amino)-2-oxoethoxy)phenyl)-2-phenylacetate] | 0.3 to 3 | < 0.3
5 | O=C(COc1cccc([C@](O)(C(=O)OCC2CCN(Cc3ccccc3)CC2)c2ccccc2)c1)NCC(=O)N1CCC(CNC[C@H](O)c2ccc(O)c3[nH]c(=O)ccc23)CC1 [Compound 150, (1-benzylpiperidin-4-yl)methyl (S)-2-hydroxy-2-(3-(2-((2-(4-((((R)-2-hydroxy-2-(8-hydroxy-2-oxo-1,2-dihydroquinolin-5-yl)ethyl)amino)methyl)piperidin-1-yl)-2-oxoethyl)amino)-2-oxoethoxy)phenyl)-2-phenylacetate] | < 0.3 | < 0.3
6 | O=C(c1ccc(CCNC[C@H](O)c2ccc(O)c3[nH]c(=O)ccc23)cc1)N1CCC(C(=O)N2CCC(COc3cccc([C@](O)(C(=O)OCC4CCN(Cc5ccccc5)CC4)c4ccccc4)c3)CC2)CC1 [Compound 151, (1-Benzylpiperidin-4-yl)methyl (S)-2-hydroxy-2-(3-((1-(1-(4-(2-(((R)-2-hydroxy-2-(8-hydroxy-2-oxo-1,2-dihydroquinolin-5-yl)ethyl)amino)ethyl)benzoyl)piperidine-4-carbonyl)piperidin-4-yl)methoxy)phenyl)-2-phenylacetate] | < 0.3 | < 0.3
7 | O=C(NCC(=O)N1CCC(COc2cccc([C@](O)(C(=O)OCC3CCN(Cc4ccccc4)CC3)c3ccccc3)c2)CC1)c1ccc(CCNC[C@H](O)c2ccc(O)c3[nH]c(=O)ccc23)cc1 [Compound 152, (1-benzylpiperidin-4-yl)methyl (S)-2-hydroxy-2-(3-((1-((4-(2-(((R)-2-hydroxy-2-(8-hydroxy-2-oxo-1,2-dihydroquinolin-5-yl)ethyl)amino)ethyl)benzoyl)glycyl)piperidin-4-yl)methoxy)phenyl)-2-phenylacetate] | 0.3 to 3 | < 0.3
8 | COc1cc(C(=O)NCC(=O)N2CCC(COc3cccc([C@](O)(C(=O)OCC4CCN(Cc5ccccc5)CC4)c4ccccc4)c3)CC2)ccc1CNC[C@H](O)c1ccc(O)c2[nH]c(=O)ccc12 [Compound 153, (1-benzylpiperidin-4-yl)methyl (S)-2-hydroxy-2-(3-((1-((4-((((R)-2-hydroxy-2-(8-hydroxy-2-oxo-1,2-dihydroquinolin-5-yl)ethyl)amino)methyl)-3-methoxybenzoyl)glycyl)piperidin-4-yl)methoxy)phenyl)-2-phenylacetate] | < 0.3 | < 0.3
9 | O=C(NCC(=O)N1CCC(COc2cccc([C@](O)(C(=O)OCC3CCN(Cc4ccccc4)CC3)c3ccccc3)c2)CC1)c1ccc(CNC[C@H](O)c2ccc(O)c3[nH]c(=O)ccc23)cc1 [Compound 154, (1-benzylpiperidin-4-yl)methyl (S)-2-hydroxy-2-(3-((1-((4-((((R)-2-hydroxy-2-(8-hydroxy-2-oxo-1,2-dihydroquinolin-5-yl)ethyl)amino)methyl)benzoyl)glycyl)piperidin-4-yl)methoxy)phenyl)-2-phenylacetate] | < 0.3 | < 0.3
10 | COc1cc(CNC[C@H](O)c2ccc(O)c3[nH]c(=O)ccc23)ccc1C(=O)NCC(=O)N1CCC(COc2cccc([C@](O)(C(=O)OCC3CCN(Cc4ccccc4)CC3)c3ccccc3)c2)CC1 [Compound 155, (1-benzylpiperidin-4-yl)methyl (S)-2-hydroxy-2-(3-((1-((4-((((R)-2-hydroxy-2-(8-hydroxy-2-oxo-1,2-dihydroquinolin-5-yl)ethyl)amino)methyl)-2-methoxybenzoyl)glycyl)piperidin-4-yl)methoxy)phenyl)-2-phenylacetate] | < 0.3 | 0.3 to 3
11 | O=C(c1ccc(C(=O)N2CCC(COc3cccc([C@](O)(C(=O)OCC4CCN(Cc5ccccc5)CC4)c4ccccc4)c3)CC2)s1)N1CCC(CNC[C@H](O)c2ccc(O)c3[nH]c(=O)ccc23)CC1 [Compound 156, (1-Benzylpiperidin-4-yl)methyl (S)-2-hydroxy-2-(3-((1-(5-(4-((((R)-2-hydroxy-2-(8-hydroxy-2-oxo-1,2-dihydroquinolin-5-yl)ethyl)amino)methyl)piperidine-1-carbonyl)thiophene-2-carbonyl)piperidin-4-yl)methoxy)phenyl)-2-phenylacetate] | < 0.3 | < 0.3
12 | O=C(OCC1CCN(Cc2ccccc2)CC1)[C@](O)(c1ccccc1)c1cccc(OCC2CCN(C(=O)[C@H]3CC[C@H](C(=O)N4CCC(CNC[C@H](O)c5ccc(O)c6[nH]c(=O)ccc56)CC4)CC3)CC2)c1 [Compound 157, (1-benzylpiperidin-4-yl)methyl (S)-2-hydroxy-2-(3-((1-((1R,4S)-4-(4-((((R)-2-hydroxy-2-(8-hydroxy-2-oxo-1,2-dihydroquinolin-5-yl)ethyl)amino)methyl)piperidine-1-carbonyl)cyclohexane-1-carbonyl)piperidin-4-yl)methoxy)phenyl)-2-phenylacetate] | > 3 | 0.3 to 3
